In patent US8933114B2, “Polymorphic forms of asenapine maleate and processes for their preparation” (Chemo Iberica, S.A., priority 2010, dated 2015):
Structures can show the parent of a compound that is named as a salt. Blank lines part the entries; values can stand above or below the compound they belong to.

What was measured:
[1] = stability of the polymorphic forms at room temperature; format: physicochemical; details: solid form
[2] = micronization step starting from the monoclinic form; cited from earlier work
[3] = solid-state stability of the freeze-dried amorphous form upon standing; format: physicochemical; details: amorphous form prepared by freeze-drying
Excerpt: WO 2008/040816 discloses an amorphous form of asenapine maleate, prepared via spray-drying or freeze-drying processes.

stability at room temperature [1]: stable at room temperature
SMILES: CN1C[C@H]2c3ccccc3Oc3ccc(Cl)cc3[C@@H]2C1 [Form G, asenapine maleate]

SMILES: CN1C[C@H]2c3ccccc3Oc3ccc(Cl)cc3[C@@H]2C1 [Form H, asenapine maleate]
polymorphic form obtained after micronization [2]: an unpredictable mixture of Form H and Form L is obtained

SMILES: CN1C[C@H]2c3ccccc3Oc3ccc(Cl)cc3[C@@H]2C1 [amorphous form, asenapine maleate]
stability of solid form upon standing [3]: not stable, and spontaneously converts into Form H upon standing
